# PMC5931576, “Allosteric modulation of the farnesoid X receptor by a small molecule” (Scientific Reports, 2018)
# Where two headings read alike, the source gives them in different places.
# Assays:
# human FXR = molecular target: T1, human FXR (Homo sapiens, UniProt Q96RI1); experiment: Full-length FXR transactivation (reporter gene) assay in HeLa cells; type: cell-based; settings: for Emax: HeLa; for EC50: read-out: hFXR: EC50; for FXR modulatory potency in words: SAR discussion
# T1 construct: expressed in transfected cells; host or cells: HeLa
# T1 sequence (Q96RI1 1-486): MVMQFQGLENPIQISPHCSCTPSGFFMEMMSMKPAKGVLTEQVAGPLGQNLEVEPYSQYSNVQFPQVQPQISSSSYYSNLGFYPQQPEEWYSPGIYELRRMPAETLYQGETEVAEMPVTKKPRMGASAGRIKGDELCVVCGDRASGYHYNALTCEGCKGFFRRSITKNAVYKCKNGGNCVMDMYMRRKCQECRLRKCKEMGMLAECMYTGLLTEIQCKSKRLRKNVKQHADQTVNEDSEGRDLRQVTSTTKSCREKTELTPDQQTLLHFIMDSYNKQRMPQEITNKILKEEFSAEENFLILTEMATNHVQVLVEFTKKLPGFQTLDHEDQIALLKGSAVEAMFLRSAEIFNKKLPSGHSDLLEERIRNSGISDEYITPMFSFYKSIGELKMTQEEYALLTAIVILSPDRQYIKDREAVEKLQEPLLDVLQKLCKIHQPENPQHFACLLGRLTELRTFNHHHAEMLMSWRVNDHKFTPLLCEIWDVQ
# T1 sequence (P19793 1-462 partner): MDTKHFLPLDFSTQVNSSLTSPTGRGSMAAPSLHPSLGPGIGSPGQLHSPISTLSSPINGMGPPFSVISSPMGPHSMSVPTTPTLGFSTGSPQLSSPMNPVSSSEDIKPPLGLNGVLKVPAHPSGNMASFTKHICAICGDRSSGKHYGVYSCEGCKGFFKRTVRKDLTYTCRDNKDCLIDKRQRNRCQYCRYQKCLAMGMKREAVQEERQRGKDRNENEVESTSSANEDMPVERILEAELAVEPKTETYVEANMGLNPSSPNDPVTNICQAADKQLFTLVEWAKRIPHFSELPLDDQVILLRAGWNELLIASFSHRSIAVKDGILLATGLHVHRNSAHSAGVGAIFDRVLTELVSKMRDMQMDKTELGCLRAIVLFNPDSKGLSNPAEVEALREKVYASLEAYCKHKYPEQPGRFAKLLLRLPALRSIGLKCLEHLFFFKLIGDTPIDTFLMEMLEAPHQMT
# HepG2 cells = experiment: WST-1 assay; type: cell-based; settings: 48 h (or 24 h)
# Method: (§1) In vitro biological evaluation […]
# WST-1 assay (Roche Diagnostics International AG, Rotkreuz, Schweiz) was performed according to manufacturer’s protocol and as described previously. In brief, HepG2 cells were seeded in DMEM high glucose, supplemented with SP (1 mM), penicillin (100 U/mL), streptomycin (100 µg/mL) and 10% FCS in 96-well plates (3∙10^4 cells/well). After 24 h, medium was changed to DMEM high glucose, supplemented with penicillin (100 U/mL), streptomycin (100 µg/mL) and 1% charcoal stripped FCS and cells were incubated with 4 or 16 (final […]
# and DMEM/1% DMSO as negative controls. After 48 h (or 24 h), WST reagent (Roche Diagnostics International AG) was added to each well according to manufacturer’s instructions. After 45 min incubation, absorption (450 nm/ reference: 620 nm) was determined with a Tecan Infinite M200 luminometer (Tecan Deutschland GmbH). Each experiment was repeated at least three times in triplicates. […]
# RXRα = tested on: T2, RXRα; experiment: Gal4-DBD-RXRα-LBD hybrid reporter gene assay; type: cell-based, human
# T2 construct: expressed in transfected cells; host or cells: HEK293T
# Description: The Gal4-fusion receptor plasmids pFA-CMV-hPPARα-LBD[34], pFA-CMV-hPPARγ-LBD[34], pFA-CMV-hPPARδ-LBD[34], pFA-CMV-hLXRα-LBD[35], pFA-CMV-hLXRβ-LBD[35], pFA-CMV-hRXRα-LBD[36], pFA-CMV-hRXRβ-LBD[36], pFA-CMV-hRXRγ-LBD[36], pFA-CMV-hRARα-LBD[36], pFA-CMV-hRARβ-LBD[36], pFA-CMV-hRARγ-LBD[36], pFA-CMV-hVDR-LBD[36] and pFA-CMV-hCAR-LBD[36] coding for the hinge region and ligand binding domain (LBD) of the canonical isoform of the respective nuclear receptor have been reported previously. pFR-Luc (Stratagene) was used as reporter plasmid and pRL-SV40 (Promega) for normalization of transfection efficiency and cell growth.
# HEK293T cells were grown in DMEM high glucose, supplemented with 10% FCS, sodium pyruvate (1 mM), penicillin (100 U/mL) and streptomycin (100 μg/mL) at 37 °C and 5% CO2. The day before transfection, HEK293T cells were seeded in 96-well plates (2.5·10^4 cells/well). Before transfection, medium was changed to Opti-MEM without supplements. Transient transfection was carried out using Lipofectamine LTX reagent (Invitrogen) according to the manufacturer’s protocol with pFR-Luc (Stratagene), pRL-SV40 (Promega) and pFA-CMV-hNR-LBD. […] Luminescence was measured with an Infinite M200 luminometer (Tecan Deutschland GmbH) or a Tecan Spark 10 M luminometer (Tecan). […]
# TGR5 = tested on: T3, TGR5; experiment: TGR5 assay (Eurofins); type: cell-based; settings: 1 and 10 µM
# T3 construct: Eurofins (Brussels, Belgium)
# AMPKα1 = experiment: Kinase inhibition assay (radiometric or HTRF); type: biochemical; settings: 20 µM
# AMPKα2 = experiment: Kinase inhibition assay (radiometric or HTRF); type: biochemical; settings: 20 µM
# CaMKK2 = experiment: Kinase inhibition assay (radiometric or HTRF); type: biochemical; settings: 20 µM
# TAK1 = experiment: Kinase inhibition assay (radiometric or HTRF); type: biochemical; settings: 20 µM
# c-Kit = experiment: Kinase inhibition assay (radiometric or HTRF); type: biochemical
# PDGF-Rα = experiment: Kinase inhibition assay (radiometric or HTRF); type: biochemical
# [1] = Metabolism assay (liver microsomes); type: in vitro ADME, Sprague−Dawley rats; settings: rat liver microsomes, 10 μM
# Method: as §1
# MgCl2). After 5 min, the reaction was started by the addition of 13 μL of microsome mix from the liver of Sprague−Dawley rats (Invitrogen; 20 mg protein/mL in 0.1 M phosphate buffer) in a shaking water bath at 37 °C.
# The reaction was stopped by addition of 250 μL of ice-cold methanol at 0, 15, 30 and 60 min. The samples were diluted with 250 μL of DMSO and centrifuged at 10000 g for 5 min at 4 °C. The supernatants were analyzed and test compound was quantified by HPLC: mobile phase: MeOH 83%/H2O 17%/formic acid 0.1%; flow-rate:
# 1 mL/min; stationary phase: MultoHigh Phenyl phase, 5 μm, 250 × 4, precolumn, phenyl, 5 μm, 20 × 4; detection wavelength: 330 and 254 nm; injection volume: 50 μL. Control samples were performed to check the stability of 4 or 16 in the reaction mixture: first control was without NADPH, which is needed for the enzymatic activity of the microsomes, second control was with inactivated microsomes (incubated for 20 min at 90 °C), third control was […]
# quantified by an external calibration curve, where data are expressed as means ± SEM of single determinations […]
# obtained in three independent experiments. […]
# as mean percent of remaining compound ± SEM; n=3): 4: 0 min: 100 ± 0%, 15 min: 86 ± 3%, 30 min: 74 ± 1%,
# PKA = tested on: PKA; set-up: method as in doi:10.1016/S0960-894X(96)00601-4, PMID 11162439; settings: cited from earlier work
# [2] = full-length reporter gene assay, HeLa cells, mean ± SEM, n ≥ 3
# [3] = full-length reporter gene assay
smiles,measurement,setting,value
Cc1ccc(C(=O)Nc2ccc(C)c(Nc3nccc(-c4cccnc4)n3)c2)cc1 [compound 11],Emax,human FXR; read-out: hFXR: max. rel. act.,8.1%
same,EC50,human FXR; [2],51 ± 1 nM
Cc1ccc(NC(=O)c2ccc(-c3ccccc3)cc2)cc1Nc1nccc(-c2cccnc2)n1 [compound 14],Emax,human FXR; read-out: hFXR: max. rel. act.,7.1%
same,EC50,human FXR; [2],130 ± 20 nM
"C[C@H](CCC(=O)O)[C@H]1CC[C@H]2[C@@H]3[C@H](O)C[C@@H]4C[C@H](O)CC[C@]4(C)[C@H]3CC[C@]12C [compound 1, chenodeoxycholic acid, reference compound]","WST-1, mean percent of untreated control","HepG2 cells; HepG2, 50 µM",88 ± 5%
COc1ccc(C(=O)Nc2ccc(C)c(Nc3nccc(-c4cccnc4)n3)c2)cc1 [compound 15],Emax,"human FXR; relative to FXR full agonist 3 at 3 µM, mean ± SEM, n ≥ 3, read-out: hFXR: max. rel. act. (converted)",8.4%
same,EC50,human FXR; [2],1000 ± 100 nM
"Cc1ccc(NC(=O)c2ccc(CN3CCN(C)CC3)cc2)cc1Nc1nccc(-c2cccnc2)n1 [compound 4, imatinib, reference compound]",RXR agonistic activity (activation of RXRα-Gal4 chimera receptor),RXRα,neither activated
same,TGR5 modulation (agonistic or antagonistic activity),TGR5,no agonistic or antagonistic activity
same,Inhibition of AMPKα1,AMPKα1,did not markedly inhibit
same,Inhibition of AMPKα2,AMPKα2,did not markedly inhibit
same,Inhibition of CaMKK2,CaMKK2,slight inhibition
same,Inhibition of TAK1,TAK1,slight inhibition
same,Inhibition of c-Kit,c-Kit,potent inhibitor
same,Inhibition of PDGF-Rα,PDGF-Rα,potent inhibitor
same,"WST-1, mean percent of untreated control","HepG2 cells; HepG2, 0.1 µM",98 ± 9%
same,"WST-1, mean percent of untreated control","HepG2 cells; HepG2, 1 µM",80 ± 9%
same,"WST-1, mean percent of untreated control","HepG2 cells; HepG2, 10 µM",78 ± 3%
same,"WST-1, mean percent of untreated control","HepG2 cells; HepG2, 50 µM",65 ± 1%
same,"WST-1, mean percent of untreated control","HepG2 cells; HepG2, 4 (10 µM) + 1 (50 µM)",77 ± 7%
same,mean percent of remaining compound,[1]; 0 min,100 ± 0%
same,mean percent of remaining compound,[1]; 15 min,86 ± 3%
same,mean percent of remaining compound,[1]; 30 min,74 ± 1%
same,mean percent of remaining compound,[1]; 60 min,61 ± 3%
same,Activity on PKA,PKA,inactive
CCc1ccc(C(=O)Nc2ccc(C)c(Nc3nccc(-c4cccnc4)n3)c2)cc1.CS(=O)(=O)O.CS(=O)(=O)O.O [compound 12],Emax,human FXR; read-out: hFXR: max. rel. act.,7.9%
same,EC50,human FXR; [2],6.4 ± 0.4 nM
same,FXR modulatory potency in words,human FXR; [3],single-digit nanomolar activity
Cc1ccc(NC(=O)c2ccc(C(C)(C)C)cc2)cc1Nc1nccc(-c2cccnc2)n1 [compound 13],Emax,human FXR; read-out: hFXR: max. rel. act.,8.6%
same,EC50,human FXR; [2],580 ± 70 nM
Cc1ccc(NC(=O)c2ccncc2)cc1Nc1nccc(-c2cccnc2)n1 [compound 10],Emax,human FXR; read-out: hFXR: max. rel. act.,11.7%
same,EC50,human FXR; [2],3500 ± 200 nM
CS(=O)(=O)O.CS(=O)(=O)O.CS(=O)(=O)O.CS(=O)(=O)O.Cc1ccc(NC(=O)c2ccccc2)cc1Nc1nccc(-c2cccnc2)n1.Cc1ccc(NC(=O)c2ccccc2)cc1Nc1nccc(-c2cccnc2)n1.O [compound 8],Emax,human FXR; read-out: hFXR: max. rel. act.,9%
same,EC50,human FXR; [2],450 ± 20 nM
same,FXR modulatory potency in words,human FXR; [3],submicromolar
CS(=O)(=O)O.CS(=O)(=O)O.CS(=O)(=O)O.CS(=O)(=O)O.Cc1ccc(NC(=O)c2ccc3ccccc3c2)cc1Nc1nccc(-c2cccnc2)n1.Cc1ccc(NC(=O)c2ccc3ccccc3c2)cc1Nc1nccc(-c2cccnc2)n1.O.O.O [compound 9],Emax,human FXR; read-out: hFXR: max. rel. act.,7.1%
same,EC50,human FXR; [2],460 ± 10 nM
same,FXR modulatory potency in words,human FXR; [3],submicromolar
CC(=O)Nc1ccc(C)c(Nc2nccc(-c3cccnc3)n2)c1.CC(=O)Nc1ccc(C)c(Nc2nccc(-c3cccnc3)n2)c1.CS(=O)(=O)O.CS(=O)(=O)O.CS(=O)(=O)O.CS(=O)(=O)O.O [compound 7],hFXR: EC50,human FXR; [2],inactive
"Cc1ccc(N)cc1Nc1nccc(-c2cccnc2)n1 [compound 17, reference compound]",Emax,human FXR; read-out: hFXR: max. rel. act.,9.2%
same,EC50,human FXR; [2],17800 ± 1100 nM
